# Reference: US20240409963A1, “Use of Inhibitors to Increase Efficiency of Crispr/CAS Insertions” (AstraZeneca AB, priority 2021, published 2024)
# Assays:
# HEK293T cells [1] = test: Different DNAPK inhibitors on precise gene editing outcomes, Example 8; settings: for HDR to indel ratio / Precise KI fold increase: gINS + ssDNA; for Precise KI fold increase: vs DMSO; for MMEJ indels Mean / NHEJ indels Mean / Total editing Mean: sgRNA CD34 (gINS) + ssDNA, 70 hours post-transfection;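 as to all read-outs here: cells transfected with plasmids for SpCas9-EGFP, editing outcomes quantified from genomic DNA by deep targeted amplicon sequencing with bioinformatic analysis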
# Protocol: Cells allowed to attach for 12 hours before transfection. Cells were transfected with DNA plasmids encoding for SpCas9-EGFP and a sgRNAs targeting CD34 (gINS) in the presence of single-stranded oligonucleotide donor (ssDNA). 70 hours post-transfection cell confluence and EGFP-based transfection efficiencies were determined with the Incucyte S3. Genomic DNA was extracted and editing outcome was analysed through deep-targeted amplicon sequencing using bioinformatic analysis.
# HEK293T cells [2] = test: PolQ inhibitor ART558 titration on precise gene editing outcomes, Example 10; type: cell-based; settings: HEK293T, with 1 μM AZD7648
# Protocol: HEK293T cells were seeded into 96-well plates and allowed to attach for 20 hours.
Compound,HDR to indel ratio (HEK293T cells [1]; DNAPK inhibitor 0.3125 μM),Precise KI fold increase (HEK293T cells [1]; DNAPK inhibitor 0.3125 μM) [fold],HDR to indel ratio (HEK293T cells [1]; DNAPK inhibitor 0.625 μM),Precise KI fold increase (HEK293T cells [1]; DNAPK inhibitor 0.625 μM) [fold],HDR to indel ratio (HEK293T cells [1]; DNAPK inhibitor 1.25 μM),Precise KI fold increase (HEK293T cells [1]; DNAPK inhibitor 1.25 μM) [fold],HDR to indel ratio (HEK293T cells [1]; DNAPK inhibitor 5 μM),Precise KI fold increase (HEK293T cells [1]; DNAPK inhibitor 5 μM) [fold],HDR to indel ratio (HEK293T cells [1]; DNAPK inhibitor 10 μM),Precise KI fold increase (HEK293T cells [1]; DNAPK inhibitor 10 μM) [fold],MMEJ indels Mean (HEK293T cells [1]; DNAPK inhibitor 0.3125 μM),NHEJ indels Mean (HEK293T cells [1]; DNAPK inhibitor 0.3125 μM),Total editing Mean (HEK293T cells [1]; DNAPK inhibitor 0.3125 μM),MMEJ indels Mean (HEK293T cells [1]; DNAPK inhibitor 0.625 μM),NHEJ indels Mean (HEK293T cells [1]; DNAPK inhibitor 0.625 μM),Total editing Mean (HEK293T cells [1]; DNAPK inhibitor 0.625 μM),MMEJ indels Mean (HEK293T cells [1]; DNAPK inhibitor 1.25 μM),NHEJ indels Mean (HEK293T cells [1]; DNAPK inhibitor 1.25 μM),Total editing Mean (HEK293T cells [1]; DNAPK inhibitor 1.25 μM),MMEJ indels Mean (HEK293T cells [1]; DNAPK inhibitor 5 μM),also measured
[2H]c1nc(C)nc([2H])c1-c1cc(NC[C@@H](C)c2cccc3c(C(=O)NC)ccnc23)ncn1,0.3,1.5,0.5,2.2,0.7,2.4,1.1,2.8,1.1,2.7,15.8,25.0,66.8,17.8,16.7,66.8,18.1,9.0,60.4,17.1,NHEJ indels Mean (HEK293T cells [1]; DNAPK inhibitor 5 μM): 2.4; Total editing Mean (HEK293T cells [1]; DNAPK inhibitor 5 μM): 55.0; MMEJ indels Mean (HEK293T cells [1]; DNAPK inhibitor 10 μM): 17.3; NHEJ indels Mean (HEK293T cells [1]; DNAPK inhibitor 10 μM): 2.0; Total editing Mean (HEK293T cells [1]; DNAPK inhibitor 10 μM): 53.4
Cc1cccc(N(C)C(=O)[C@@H]2[C@H](O)CCN2c2nc(C)cc(C(F)(F)F)c2C#N)c1 [ART558],,,,,,,,,,,,,,,,,,,,,precise knock-in frequencies of the single-stranded oligonucleotide donor (HEK293T cells [2]; concentration-dependent): increases; unprecise DNA repair events (HEK293T cells [2]; with increasing inhibitor concentration): decreases
"Cc1nccnc1C(O)c1ccc(F)c(-c2ncnc3cc(N4CCOCC4)ccc23)c1 (centres unmarked) [TLR1, (4-fluoro-3-(7-morpholinoquinazolin-4-yl)phenyl) (3-methylpyrazin-2-yl) methanol]",0.4,1.9,0.7,2.4,0.9,2.6,1.4,2.5,1.5,2.0,15.4,21.6,66.4,17.3,12.3,63.2,16.9,6.9,58.1,11.9,NHEJ indels Mean (HEK293T cells [1]; DNAPK inhibitor 5 μM): 1.7; Total editing Mean (HEK293T cells [1]; DNAPK inhibitor 5 μM): 44.5; MMEJ indels Mean (HEK293T cells [1]; DNAPK inhibitor 10 μM): 9.2; NHEJ indels Mean (HEK293T cells [1]; DNAPK inhibitor 10 μM): 1.3; Total editing Mean (HEK293T cells [1]; DNAPK inhibitor 10 μM): 34.1
"Cc1cc2ncnn2cc1Nc1ncc2c(n1)N(C1CCOCC1)CC(=O)N2C [TLR2, 5-methyl-2-((7-methyl-[1,2,4]triazolo[1,5-a]pyridin-6-yl)amino)-8-(tetrahydro-2H-pyran-4-yl)-7,8 dihydropteridin-6 (5H)-one]",0.6,2.3,0.9,2.5,1.0,2.3,1.1,2.6,1.1,2.1,16.7,13.5,62.8,17.1,6.1,56.8,16.0,3.2,49.7,16.2,NHEJ indels Mean (HEK293T cells [1]; DNAPK inhibitor 5 μM): 2.1; Total editing Mean (HEK293T cells [1]; DNAPK inhibitor 5 μM): 50.9; MMEJ indels Mean (HEK293T cells [1]; DNAPK inhibitor 10 μM): 13.6; NHEJ indels Mean (HEK293T cells [1]; DNAPK inhibitor 10 μM): 1.8; Total editing Mean (HEK293T cells [1]; DNAPK inhibitor 10 μM): 42.4
